Here are results for one molecule from ChEMBL document CHEMBL5316327, “Design and Synthesis of Orally Active Quinolyl Pyrazinamides as Sigma 2 Receptor Ligands for the Treatment of Pancreatic Cancer” (J Med Chem, 2023).

Molecules are shown by their SMILES. Active and inactive are the calls of the source. The rule behind the calls is not given here.

Series [1] relates to HCT-116. Put plainly: Induction of apoptosis in human HCT-116 cells assessed as viable cells at 10.0 uM measured after 48 hrs by Annexin V-Alexa Fluor 488/propidium iodide staining based flow cytometry (reference value: 79.69%). It is filed as functional. The conditions noted are these: read-out: Activity.
Series [2] relates to HCT-116. Put plainly: Induction of cell cycle arrest in human HCT-116 cells assessed as accumulation of cells in G2/M phase at 10 uM measured after 24 hrs by propidium iodide staining-based flow cytometric analysis (reference value: 10%). In kind it is functional.
In another series the test system is BXPC-3. Put plainly: cells. The conditions noted are these: Homo sapiens, BXPC-3, 72 h.
The target in another series is D(3) dopamine receptor (Homo sapiens, UniProt P35462). Put plainly: Binding affinity to dopamine D3 receptor (unknown origin) assessed as inhibition constant.
Sequence of D(3) dopamine receptor (P35462 whole entry): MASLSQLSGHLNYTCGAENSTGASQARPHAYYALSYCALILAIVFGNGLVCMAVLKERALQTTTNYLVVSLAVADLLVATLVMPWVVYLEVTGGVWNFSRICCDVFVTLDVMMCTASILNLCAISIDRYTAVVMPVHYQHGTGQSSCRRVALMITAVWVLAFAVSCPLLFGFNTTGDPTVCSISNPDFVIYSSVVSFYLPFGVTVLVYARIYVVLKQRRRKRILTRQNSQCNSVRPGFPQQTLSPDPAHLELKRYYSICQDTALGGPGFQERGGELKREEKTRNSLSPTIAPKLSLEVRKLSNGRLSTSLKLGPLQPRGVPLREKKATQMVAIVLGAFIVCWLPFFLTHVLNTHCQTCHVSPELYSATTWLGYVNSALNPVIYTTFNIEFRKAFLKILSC
For series [3], the system named is HCT-116. Put plainly: Induction of apoptosis in human HCT-116 cells assessed as early apoptotic cells at 10.0 uM measured after 48 hrs by Annexin V-Alexa Fluor 488/propidium iodide staining based flow cytometry (reference value: 2.77%). In kind it is functional. A general note: Flow cytometry measures light scatter and fluorescence of single cells or particles in a stream.

The target in the next series is D(1B) dopamine receptor (Homo sapiens, UniProt P21918). Put plainly: Binding affinity to dopamine D5 receptor (unknown origin) assessed as inhibition constant.
Sequence of D(1B) dopamine receptor (P21918 whole entry): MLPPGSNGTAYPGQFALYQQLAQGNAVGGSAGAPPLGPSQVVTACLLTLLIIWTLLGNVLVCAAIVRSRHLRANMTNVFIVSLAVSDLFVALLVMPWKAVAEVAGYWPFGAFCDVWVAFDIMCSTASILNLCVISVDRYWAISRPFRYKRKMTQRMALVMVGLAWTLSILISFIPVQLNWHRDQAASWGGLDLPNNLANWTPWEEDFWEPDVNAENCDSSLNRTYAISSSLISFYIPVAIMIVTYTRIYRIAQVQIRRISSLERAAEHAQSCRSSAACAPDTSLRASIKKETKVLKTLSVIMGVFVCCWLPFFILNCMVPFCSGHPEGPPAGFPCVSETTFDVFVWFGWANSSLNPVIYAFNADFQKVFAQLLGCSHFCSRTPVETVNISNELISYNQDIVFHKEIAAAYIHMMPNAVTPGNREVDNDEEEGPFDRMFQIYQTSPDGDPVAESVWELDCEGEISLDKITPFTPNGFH
Series [4] deals with HCT-116. Put plainly: Induction of apoptosis in human HCT-116 cells assessed as viable cells at 5.0 uM measured after 48 hrs by Annexin V-Alexa Fluor 488/propidium iodide staining based flow cytometry (reference value: 79.69%). It is filed as functional. The conditions noted are these: read-out: Activity.
Series [5] concerns the target Sigma non-opioid intracellular receptor 1 (Homo sapiens, UniProt Q99720). Put plainly: Displacement of [3H](+)-pentazocine from human sigma 1 receptor transfected in human HEK293T cells assessed as inhibition constant by radioligand competition binding assay. It is filed as cell-based.
Series [6] concerns MIA PaCa-2. Put plainly: Upregulation of GRP78 in human MIA PaCa-2 cells at 10 uM measured after 24 hrs by Western blot analysis. In kind it is functional, cell-based.
The test system of series [7] is MIA PaCa-2. Put plainly: Induction of autophagy in human MIA PaCa-2 cells assessed as upregulation of LC-3 level at 1 to 10 uM measured after 24 hrs. The conditions noted are these: dose 1-10 µM. It is filed as functional, cell-based.
Series [8] deals with HCT-116. Put plainly: Induction of apoptosis in human HCT-116 cells assessed as late apoptotic cells at 1.0 uM measured after 48 hrs by Annexin V-Alexa Fluor 488/propidium iodide staining based flow cytometry (reference value: 8.48%). It is filed as functional.
Series [9] deals with MIA PaCa-2. Put plainly: Induction of apoptosis in human MIA PaCa-2 cells assessed as necrotic cells at 10.0 uM measured after 48 hrs by Annexin V-Alexa Fluor 488/propidium iodide staining based flow cytometry (reference value: 7.03%). In kind it is functional.
The nature of series [10]: Toxicity in C57BL/6 mouse assessed as effect on body weight at 30 mg/kg, po administered for 32 days and measured on day 4,7 in presence of copper sulfate. In kind it is organism-based. The note with it: in vivo, 768 h, time 32 day.
Series [11] relates to MIA PaCa-2. Put plainly: Induction of apoptosis in human MIA PaCa-2 cells assessed as late apoptotic cells at 1.0 uM measured after 48 hrs by Annexin V-Alexa Fluor 488/propidium iodide staining based flow cytometry (reference value: 6.63%). It is filed as functional.
Series [12] in a line: AUC (0 to time of last detectable concentration) in CD-1 mouse plasma at 20 mg/kg, po. It is filed as ADME, organism-based. Set-up: dose 20 mg/kg, route po.
Series [13] addresses 5-hydroxytryptamine receptor 2C (Homo sapiens, UniProt P28335). Put plainly: Binding affinity to 5-HT2C receptor (unknown origin) assessed as inhibition constant.
Series [14] deals with HCT-116. Put plainly: Induction of apoptosis in human HCT-116 cells assessed as early apoptotic cells at 1.0 uM measured after 48 hrs by Annexin V-Alexa Fluor 488/propidium iodide staining based flow cytometry (reference value: 2.77%). It is filed as functional.
In another series the test system is Panc02. Put plainly: Antitumor activity against mouse Panc02 cells xenografted in C57BL/6 mouse model assessed as delayed tumor growth at 60 mg/kg, ip administered daily for 28 days by caliper method. The note with it: time 28.0 day. In kind it is functional, organism-based.
For series [15], the system named is MIA PaCa-2. Put plainly: Additive ferroptosis activity in human MIA-PaCa-2 cells at upto 1 uM measured after 7 days in presence of erastin by crystal violet staining based analysis. In kind it is functional, cell-based. The conditions noted are these: time 7.0 day.
In series [16] the test system is MIA PaCa-2. Put plainly: Synergistic cytotoxicity in human MIA PaCa-2 cells at upto 1 uM measured after 7 days in presence of SC144 by crystal violet staining based analysis. It is filed as functional, cell-based. The conditions noted are these: time 7.0 day.

Sequence of Sigma non-opioid intracellular receptor 1 (Q99720 whole entry): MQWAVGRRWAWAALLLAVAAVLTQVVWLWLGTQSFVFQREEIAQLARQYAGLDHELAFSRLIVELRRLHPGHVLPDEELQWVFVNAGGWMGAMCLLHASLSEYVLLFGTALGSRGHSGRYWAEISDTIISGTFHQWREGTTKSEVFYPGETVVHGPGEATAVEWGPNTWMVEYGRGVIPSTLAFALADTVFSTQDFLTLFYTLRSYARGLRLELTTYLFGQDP
Sequence of 5-hydroxytryptamine receptor 2C (P28335 whole entry): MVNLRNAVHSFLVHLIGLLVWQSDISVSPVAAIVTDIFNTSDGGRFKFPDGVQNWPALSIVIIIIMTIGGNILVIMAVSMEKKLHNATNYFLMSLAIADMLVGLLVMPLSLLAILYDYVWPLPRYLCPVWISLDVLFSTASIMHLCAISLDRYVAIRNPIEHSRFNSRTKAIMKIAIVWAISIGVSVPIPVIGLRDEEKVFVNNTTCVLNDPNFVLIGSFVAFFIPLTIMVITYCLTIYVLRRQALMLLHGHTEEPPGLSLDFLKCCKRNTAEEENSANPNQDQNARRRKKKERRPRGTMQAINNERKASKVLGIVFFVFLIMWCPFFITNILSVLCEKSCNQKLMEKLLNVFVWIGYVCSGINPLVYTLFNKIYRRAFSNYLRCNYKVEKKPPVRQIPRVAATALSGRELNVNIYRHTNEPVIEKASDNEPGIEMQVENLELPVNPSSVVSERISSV

Broadly, the IC50 is the concentration at which inhibition is half-maximal. Read a low IC50 as higher potency. As usually defined, the Ki is a dissociation constant, usually derived from enzyme kinetics or from competition with a known ligand. A word on the AUC: it is the area under the concentration-time curve, a measure of exposure. Lower therefore signals less exposure. With `CCN(CC)CCCC(C)Nc1cnc(C(=O)Nc2ccc(Cl)c3cccnc23)cn1` (stereo not given), the viability at 10 µM in the series with HCT-116 [1] was 32.9%. Moreover, the Activity with HCT-116 [2] is listed as 22%; in the series on HCT-116 [3], 16.72%; in the series on HCT-116 [8], 9.6%; in the series on MIA PaCa-2 [9], 7.21%; in [10] it was “Toxic”; in the series with MIA PaCa-2 [11], 30.8%. Besides, the Activity in the series with HCT-116 [14] came to 2.38%. Moreover, 5800 nM corresponded to half-maximal inhibition in the series with BXPC-3 (IC50). Also, the Ki on D(3) dopamine receptor came out at 638 nM; on D(1B) dopamine receptor, 1550 nM; in series [5], 530 nM; in [13], 471 nM. For the same molecule, the viability at 5 µM with HCT-116 [4] was 64.1%. Besides, the outcome in the series on MIA PaCa-2 [6], in the series on MIA PaCa-2 [7], in the series with Panc02 and in the series with MIA PaCa-2 [15] was Active. This molecule had an AUC in [12] of 3110 ng·h/mL. The result in the series on MIA PaCa-2 [16] was inactive.
